# Assay results published in publication PMC3598812, “Evaluation of Anti-Hyperalgesic and Analgesic Effects of Two Benzodiazepines in Human Experimental Pain: A Randomized Placebo-Controlled Study” (PLoS ONE, 2013).
# Entries after “also recorded” stand apart in the source; their conditions may differ.
# Experiments:
# Type in all cases: in vivo, human
# healthy male volunteers [1] = assay: Pain rating (VAS) after graded von Frey hair stimulation in the capsaicin hyperalgesic area; conditions: VAS 0-10, single oral dose (clobazam 20 mg, clonazepam 1 mg, tolterodine 1 mg), mean (SD)
# Method: Additionally, mechanical pain sensitivity was assessed using a set of seven weighted pinprick stimuli to obtain a stimulus-response function. The test was applied 1 cm inside the outer border of the pinprick hyperalgesic area, using a set of 7 graded von Frey hair mechanical stimulators with fixed stimulus intensities (custom-made at Aalborg University, Denmark). The flat contact area of the stimulators has a 0.2 mm diameter, and the 7 stimulators exert forces of 8, 16, 32, 64, 128, 256 and 512 mN. The order of stimulation was defined randomly by computer. The stimulators were applied at a rate of 2 s on/2 s off. Subjects were asked to give a pain rating for each stimulus on a 10 cm VAS. Two assessments for each stimulation were made and the mean of these 2 measurements was used for the data analysis.
# healthy male volunteers [2] = assay: Conditioned pain modulation (cold pressor test and pressure algometry); conditions: difference in pressure pain detection threshold after vs before cold pressor test, mean (SD)
# Text: This method explores the endogenous modulation of nociceptive input. Under normal conditions, pain after application of a “test” nociceptive stimulus is attenuated by the application of an additional conditioning noxious stimulus to a remote body region, reflecting diffuse endogenous inhibition, [20]. In the present study, pressure pain detection threshold and cold pressure test (see below) were used as test and conditioning stimuli, respectively. An increase in pressure pain detection threshold immediately after cold pressure test was an indication of CPM.
# The subjects placed their hand into a container filled with ice water. In order to maximize heterotopic stimulation, the hand contralateral to the side of pressure stimulation was used. The water was regularly mixed to maintain the temperature near to 0°C. The temperature of the water near the hand was monitored by a thermometer with a digital display (±0.1°C). The subjects were asked to keep the hand in the water until they felt an intolerable sensation of pain and were forced to remove the hand from the container, with a maximum time of 2 min.
# Pressure pain detection threshold was measured again at the same time as the subject was withdrawing the hand from the water (one single measurement). CPM was measured as the difference in pressure pain detection threshold between measurements after and before the cold pressure test.
# healthy male volunteers [3] = assay: Cutaneous single electrical stimulation pain threshold; conditions: mean (SD)
# Method: (§1) Electrical stimulation was performed through electrodes placed distal to the lateral malleolus. A 25 ms, train-of-five, 1 ms, square-wave impulse (perceived as one stimulus), was delivered by a computer-controlled constant current stimulator (Digitimer DS7A, Neurospec, Letchworth Garden City, UK). The current intensity was increased from 1 mA in steps of 0.5 mA until a pain sensation was evoked.
# (§2) Three assessments were made and the mean of these 3 measurements was used for the data analysis.
# healthy male volunteers [4] = assay: Cutaneous repeated (5 stimuli) electrical stimulation, temporal summation threshold; conditions: mean (SD)
# Text: (§3) The stimulus burst used for single stimulus was repeated 5 times at 2 Hz, at constant intensity. The current intensity of the 5 stimuli was increased from 1 mA in steps of 0.5 mA until the subjects felt pain during the last 2–3 of the 5 stimuli (indicating temporal summation).
# as §2
# healthy male volunteers [5] = assay: Intramuscular single electrical stimulation pain threshold (tibialis anterior); conditions: for Pain threshold after single intramuscular electrical stimulation: mean (SD)
# Method: as §1
# (§4) A needle was placed in the tibialis anterior muscle, 14 cm distal from the caudal end of the patella and 20 mm in depth. The same single and repeated stimulation patterns and the same procedure described for cutaneous stimulation were used.
# healthy male volunteers [6] = assay: Intramuscular repeated (5 stimuli) electrical stimulation pain threshold
# Text: as §3, §4
# healthy male volunteers [7] = assay: Cuff algometry (tourniquet cuff on the leg, VAS-time AUC); set-up: AUC of VAS during cuff algometry: unit not given beside the values; conditions: for AUC of VAS during cuff algometry: mean (SD)
# Text: A tourniquet cuff was applied to the middle of the leg, at the level of the heads of the gastrocnemius and soleus muscle. The cuff was applied at the side contralateral to the side of electrical stimulation in order not to interfere with the positioning of the intramuscular electrodes. During stimulation, the volunteer rated the pain intensity on an electronic VAS scale. The cuff was inflated with compressed air until VAS 6 was reached. The maximum allowed inflating pressure was 200 kPa. The pressure was maintained for 10 min or until the subjects rated the pain as intolerable. The area under the curve VAS-time was computed. For those subjects who felt intolerable pain before 10 min, the time when the cuff was deflated was recorded and VAS 10 was extrapolated until 10 min. Additionally, the maximal VAS during inflation was recorded.
# [8] = baseline before medication, per drug session
# [9] = single oral dose (clobazam 20 mg, clonazepam 1 mg, tolterodine 1 mg), 120 min after medication
# [10] = single oral dose (clobazam 20 mg, clonazepam 1 mg, tolterodine 1 mg), after flumazenil 0.2 mg iv
# [11] = single oral dose (clobazam 20 mg, clonazepam 1 mg, tolterodine 1 mg), 30 min after medication
# [12] = single oral dose (clobazam 20 mg, clonazepam 1 mg, tolterodine 1 mg), 60 min after medication
# [13] = single oral dose (clobazam 20 mg, clonazepam 1 mg, tolterodine 1 mg), 90 min after medication
# [14] = peak value analysis, pairwise comparisons within each drug
# [15] = subgroup analysis (n = 8), pairwise multiple comparisons
structure (smiles),measurement,setting,value
O=C1CN=C(c2ccccc2Cl)c2cc([N+](=O)[O-])ccc2N1 [Clonazepam],VAS after von Frey hair 8 mN,healthy male volunteers [1]; 30 min after medication,1.4 (1.5)
same,VAS after von Frey hair 16 mN,healthy male volunteers [1]; 30 min after medication,1.6 (1.2)
same,VAS after von Frey hair 32 mN,healthy male volunteers [1]; 30 min after medication,1.9 (1.5)
same,VAS after von Frey hair 64 mN,healthy male volunteers [1]; 30 min after medication,2.8 (1.8)
same,VAS after von Frey hair 128 mN,healthy male volunteers [1]; 30 min after medication,3.2 (4.2)
same,VAS after von Frey hair 256 mN,healthy male volunteers [1]; 30 min after medication,4.2 (2.2)
same,VAS after von Frey hair 512 mN,healthy male volunteers [1]; 30 min after medication,5.2 (2.1)
same,VAS after von Frey hair 8 mN,healthy male volunteers [1]; 60 min after medication,1.2 (0.9)
same,VAS after von Frey hair 16 mN,healthy male volunteers [1]; 60 min after medication,1.8 (1.9)
same,VAS after von Frey hair 32 mN,healthy male volunteers [1]; 60 min after medication,2.0 (2.0)
same,VAS after von Frey hair 64 mN,healthy male volunteers [1]; 60 min after medication,2.7 (2.0)
same,VAS after von Frey hair 128 mN,healthy male volunteers [1]; 60 min after medication,3.5 (2.0)
same,VAS after von Frey hair 256 mN,healthy male volunteers [1]; 60 min after medication,4.1 (1.8)
same,VAS after von Frey hair 512 mN,healthy male volunteers [1]; 60 min after medication,5.1 (2.0)
same,VAS after von Frey hair 8 mN,healthy male volunteers [1]; 90 min after medication,0.8 (0.8)
same,VAS after von Frey hair 16 mN,healthy male volunteers [1]; 90 min after medication,1.3 (1.0)
same,VAS after von Frey hair 32 mN,healthy male volunteers [1]; 90 min after medication,1.8 (1.4)
same,VAS after von Frey hair 64 mN,healthy male volunteers [1]; 90 min after medication,2.1 (1.6)
same,VAS after von Frey hair 128 mN,healthy male volunteers [1]; 90 min after medication,2.8 (1.7)
same,VAS after von Frey hair 256 mN,healthy male volunteers [1]; 90 min after medication,4.4 (2.0)
same,VAS after von Frey hair 512 mN,healthy male volunteers [1]; 90 min after medication,5.3 (2.1)
same,VAS after von Frey hair 8 mN,healthy male volunteers [1]; 120 min after medication,1.0 (0.8)
same,VAS after von Frey hair 16 mN,healthy male volunteers [1]; 120 min after medication,1.4 (1.2)
same,VAS after von Frey hair 32 mN,healthy male volunteers [1]; 120 min after medication,2.1 (1.7)
same,VAS after von Frey hair 64 mN,healthy male volunteers [1]; 120 min after medication,2.3 (1.5)
same,VAS after von Frey hair 128 mN,healthy male volunteers [1]; 120 min after medication,2.9 (1.9)
same,VAS after von Frey hair 256 mN,healthy male volunteers [1]; 120 min after medication,3.9 (2.2)
same,VAS after von Frey hair 512 mN,healthy male volunteers [1]; 120 min after medication,5.0 (1.9)
same,VAS after von Frey hair 8 mN,healthy male volunteers [1]; after flumazenil 0.2 mg iv,0.6 (0.6)
same,VAS after von Frey hair 16 mN,healthy male volunteers [1]; after flumazenil 0.2 mg iv,1.4 (1.2)
same,VAS after von Frey hair 32 mN,healthy male volunteers [1]; after flumazenil 0.2 mg iv,1.6 (1.4)
same,VAS after von Frey hair 64 mN,healthy male volunteers [1]; after flumazenil 0.2 mg iv,2.2 (1.7)
same,VAS after von Frey hair 128 mN,healthy male volunteers [1]; after flumazenil 0.2 mg iv,2.6 (1.9)
same,VAS after von Frey hair 256 mN,healthy male volunteers [1]; after flumazenil 0.2 mg iv,3.8 (1.7)
same,VAS after von Frey hair 512 mN,healthy male volunteers [1]; after flumazenil 0.2 mg iv,4.9 (1.7)
same,Conditioned pain modulation,healthy male volunteers [2]; [8],70 (113) kPa
same,Conditioned pain modulation,healthy male volunteers [2]; [9],85 (77) kPa
same,Conditioned pain modulation,healthy male volunteers [2]; [10],74 (86) kPa
same,Pain threshold after single cutaneous electrical stimulation,healthy male volunteers [3]; [8],9.7 (3.3) mA
same,Pain threshold after single cutaneous electrical stimulation,healthy male volunteers [3]; [11],9.8 (3.5) mA
same,Pain threshold after single cutaneous electrical stimulation,healthy male volunteers [3]; [12],10.3 (3.4) mA
same,Pain threshold after single cutaneous electrical stimulation,healthy male volunteers [3]; [13],10.6 (3.6) mA
same,Pain threshold after single cutaneous electrical stimulation,healthy male volunteers [3]; [9],11.0 (3.6) mA
same,Pain threshold after single cutaneous electrical stimulation,healthy male volunteers [3]; [10],11.2 (3.9) mA
same,Pain threshold after 5 cutaneous electrical stimuli,healthy male volunteers [4]; [8],8.2 (3.1) mA
same,Pain threshold after 5 cutaneous electrical stimuli,healthy male volunteers [4]; [11],8.2 (3.0) mA
same,Pain threshold after 5 cutaneous electrical stimuli,healthy male volunteers [4]; [12],8.5 (2.9) mA
same,Pain threshold after 5 cutaneous electrical stimuli,healthy male volunteers [4]; [13],8.8 (3.2) mA
same,Pain threshold after 5 cutaneous electrical stimuli,healthy male volunteers [4]; [9],9.1 (3.1) mA
same,Pain threshold after 5 cutaneous electrical stimuli,healthy male volunteers [4]; [10],9.2 (3.3) mA
same,Pain threshold after single intramuscular electrical stimulation,healthy male volunteers [5]; [8],1.8 (1.2) mA
same,Pain threshold after single intramuscular electrical stimulation,"healthy male volunteers [5]; baseline before medication, per drug session, listed as clonazepam",1.84 mA
same,Change in pain threshold after single intramuscular electrical stimulation from baseline to after flumazenil,"healthy male volunteers [5]; main analysis, pairwise comparisons within each drug",Significant increase in pain thresholds only for clonazepam
same,"Change in pain detection threshold from baseline to peak value, intramuscular single electrical stimulation",healthy male volunteers [5]; [14],significantly increase; also recorded: Significant increase in pain thresholds only for clonazepam in the peak value analysis
same,"Pain detection threshold, intramuscular single electrical stimulation","healthy male volunteers [5]; peak value analysis, peak value before flumazenil, mean",11.0
same,Pain threshold after single intramuscular electrical stimulation,healthy male volunteers [5]; [9],3.0 (2.5) mA
same,Pain threshold after single intramuscular electrical stimulation,healthy male volunteers [5]; [10],4.1 (3.7) mA
same,Pain threshold after single intramuscular electrical stimulation,"healthy male volunteers [5]; single oral dose (clobazam 20 mg, clonazepam 1 mg, tolterodine 1 mg), after flumazenil 0.2 mg iv, listed as clonazepam",4.05 mA
same,Pain threshold after 5 intramuscular electrical stimuli,"healthy male volunteers [6]; baseline before medication, per drug session, mean (SD)",1.6 (1.1) mA
same,Change in pain threshold after 5 intramuscular electrical stimuli between baseline and 120 minutes,"healthy male volunteers [6]; main analysis, pairwise multiple comparison",statistically significant increase; also recorded: Significant increase in pain thresholds
same,Change in pain detection threshold after 5 intramuscular electrical stimuli from baseline to peak value,healthy male volunteers [6]; [14],significant increase; also recorded: Consistent for an increase in pain thresholds after clobazam and clonazepam
same,Pain threshold after 5 intramuscular electrical stimuli,"healthy male volunteers [6]; single oral dose (clobazam 20 mg, clonazepam 1 mg, tolterodine 1 mg), 120 min after medication, mean (SD)",2.3 (1.6) mA
same,Pain threshold after 5 intramuscular electrical stimuli,"healthy male volunteers [6]; single oral dose (clobazam 20 mg, clonazepam 1 mg, tolterodine 1 mg), after flumazenil 0.2 mg iv, mean (SD)",2.9 (2.3) mA
same,Pain threshold after 5 intramuscular electrical stimuli,"healthy male volunteers [6]; subgroup analysis (n = 8), 120 minutes, mean",2.93 mA
same,Pain threshold after 5 intramuscular electrical stimuli,"healthy male volunteers [6]; subgroup analysis (n = 8), after flumazenil administration, mean",3.58 mA
same,Pain threshold after 5 intramuscular electrical stimuli,"healthy male volunteers [6]; subgroup analysis (n = 8), baseline, mean",1.69 mA
same,AUC of VAS during cuff algometry,healthy male volunteers [7]; [8],3420 (689)
same,"Cuff algometry, overview of peak value or subgroup analysis","healthy male volunteers [7]; overview table, compared to tolterodine","Time factor significant, favouring clobazam and clonazepam compared to tolterodine"
same,AUC of VAS during cuff algometry,healthy male volunteers [7]; [9],3175 (644)
same,AUC of VAS during cuff algometry,healthy male volunteers [7]; [10],3225 (671)
same,AUC of VAS during cuff algometry compared with tolterodine at 120 min,healthy male volunteers [7]; [15],significantly lower
same,Change of AUC of VAS during cuff algometry from baseline at 120 min and after flumazenil,healthy male volunteers [7]; [15],significantly decreased
